Earlier results in patent publication US10653683B2, “Tiotropium inhalation solution for nebulization” (GLENMARK SPECIALTY S.A., priority 2016, dated 2020).

How the values were obtained:
[1] = relative to histamine

Solubility in methanol (methanol)	Solubility in water (water)	Compound	Bronchoconstrictor properties, times less potent than histamine [1]
soluble	sparingly soluble	C[N+]1(C)C2CC(OC(=O)C(O)(c3cccs3)c3cccs3)CC1C1OC12 (stereo not drawn) [Tiotropium bromide monohydrate, (1α, 2ß, 4ß, 5α, 7ß)-7-[(hydroxydi-2-thienylacetyl)oxy]-9,9-dimethyl-3-oxa-9-azoniatricyclo [3.3.1.02, 4] nonane bromide monohydrate]	–
–	–	benzalkonium chloride	7.4 times
